Data taken from patent publication US20260183275A1, “SUBSTITUTED QUINOLONE COMPOUNDS USEFUL AS INHIBITORS OF TLR9” (Bristol-Myers Squibb Company, priority 2022, published 2026).

Experiments:
Assay type in all cases: cell-based
human TLR9 = biological target: T1, human TLR9 (Homo sapiens, UniProt Q9NR96); experiment: TLR9 inhibition reporter assay (HEK-Blue cells, SEAP reporter); conditions: HEK-Blue cells overexpressing human TLR9; stimulated with ODN2006 5 nM; SEAP read after 22 hour; dose range 0.05 nM-50 μM
T1 construct: host or cells: HEK-Blue cells
T1 sequence (Q9NR96 26-1032): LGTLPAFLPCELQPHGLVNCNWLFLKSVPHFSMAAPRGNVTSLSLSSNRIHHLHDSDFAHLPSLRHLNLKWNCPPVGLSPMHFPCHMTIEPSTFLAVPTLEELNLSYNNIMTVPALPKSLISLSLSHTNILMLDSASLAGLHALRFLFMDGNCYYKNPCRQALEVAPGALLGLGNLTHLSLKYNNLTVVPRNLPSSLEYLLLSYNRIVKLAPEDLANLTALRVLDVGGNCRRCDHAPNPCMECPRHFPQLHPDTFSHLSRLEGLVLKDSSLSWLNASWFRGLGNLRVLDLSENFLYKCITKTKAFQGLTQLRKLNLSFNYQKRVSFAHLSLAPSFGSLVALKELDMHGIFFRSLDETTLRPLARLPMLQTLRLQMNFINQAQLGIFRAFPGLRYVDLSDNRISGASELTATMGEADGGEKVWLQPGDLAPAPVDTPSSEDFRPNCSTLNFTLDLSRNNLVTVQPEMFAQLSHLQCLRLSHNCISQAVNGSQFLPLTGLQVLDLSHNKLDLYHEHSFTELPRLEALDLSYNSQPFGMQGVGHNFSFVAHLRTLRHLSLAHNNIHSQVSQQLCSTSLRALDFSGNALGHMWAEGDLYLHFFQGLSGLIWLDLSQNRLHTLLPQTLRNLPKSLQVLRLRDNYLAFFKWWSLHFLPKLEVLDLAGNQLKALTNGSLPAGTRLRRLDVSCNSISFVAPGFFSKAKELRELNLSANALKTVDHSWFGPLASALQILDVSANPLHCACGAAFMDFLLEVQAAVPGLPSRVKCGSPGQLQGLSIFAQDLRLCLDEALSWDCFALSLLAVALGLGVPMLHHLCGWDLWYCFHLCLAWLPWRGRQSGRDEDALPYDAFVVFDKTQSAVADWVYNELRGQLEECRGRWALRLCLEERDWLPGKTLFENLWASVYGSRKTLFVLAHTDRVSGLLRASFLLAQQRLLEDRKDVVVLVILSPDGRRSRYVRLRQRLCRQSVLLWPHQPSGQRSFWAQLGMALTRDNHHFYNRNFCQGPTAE
Method in brief: (§1)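 HEK-Blue cells with NF-κB/AP-1-driven SEAP pre-treated 30 min with compounds (0.05 nM-50 μM), then stimulated with gardiquimod 7.5 μM (TLR7), R848 15.9 μM (TLR8) or ODN2006 5 nM (TLR9). SEAP read after 22 h at 37° C; % inhibition relative to agonist+DMSO and reference-inhibitor wells.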

human TLR7 = biological target: T2, human TLR7 (Homo sapiens, UniProt Q9NYK1); experiment: TLR7 inhibition reporter assay (HEK-Blue cells, SEAP reporter); conditions: HEK-Blue cells overexpressing human TLR7; stimulated with gardiquimod 7.5 μM; SEAP read after 22 hour; dose range 0.05 nM-50 μM
T2 construct: host or cells: HEK-Blue cells
T2 sequence (Q9NYK1 27-1049): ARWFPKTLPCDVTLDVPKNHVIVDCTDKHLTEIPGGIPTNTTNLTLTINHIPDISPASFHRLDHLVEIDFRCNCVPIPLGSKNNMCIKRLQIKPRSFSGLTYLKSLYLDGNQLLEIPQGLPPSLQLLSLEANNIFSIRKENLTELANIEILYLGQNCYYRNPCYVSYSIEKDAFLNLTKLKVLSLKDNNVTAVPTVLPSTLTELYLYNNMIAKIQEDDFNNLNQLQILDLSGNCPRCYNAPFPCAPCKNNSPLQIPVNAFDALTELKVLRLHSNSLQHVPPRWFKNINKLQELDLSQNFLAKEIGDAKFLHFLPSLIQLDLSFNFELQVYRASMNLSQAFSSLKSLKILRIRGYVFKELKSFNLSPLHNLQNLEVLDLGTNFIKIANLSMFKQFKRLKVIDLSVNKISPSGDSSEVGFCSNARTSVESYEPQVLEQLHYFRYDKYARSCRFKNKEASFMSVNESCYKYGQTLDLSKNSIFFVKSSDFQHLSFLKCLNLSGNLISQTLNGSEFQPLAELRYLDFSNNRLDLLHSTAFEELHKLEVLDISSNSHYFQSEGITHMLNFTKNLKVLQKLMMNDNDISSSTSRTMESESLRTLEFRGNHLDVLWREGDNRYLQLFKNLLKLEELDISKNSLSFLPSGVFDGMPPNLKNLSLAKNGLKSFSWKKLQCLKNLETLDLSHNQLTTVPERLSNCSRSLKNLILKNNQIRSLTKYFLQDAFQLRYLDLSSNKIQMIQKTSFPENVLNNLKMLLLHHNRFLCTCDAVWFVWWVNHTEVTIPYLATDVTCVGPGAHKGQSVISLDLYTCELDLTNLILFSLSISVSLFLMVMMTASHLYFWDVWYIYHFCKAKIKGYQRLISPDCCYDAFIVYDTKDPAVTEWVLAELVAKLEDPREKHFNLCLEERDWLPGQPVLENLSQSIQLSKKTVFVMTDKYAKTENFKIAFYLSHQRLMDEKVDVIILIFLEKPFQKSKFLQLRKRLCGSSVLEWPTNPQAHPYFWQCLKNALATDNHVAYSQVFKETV
Method in brief: as §1

human TLR8 = biological target: T3, human TLR8 (Homo sapiens, UniProt Q9NR97); experiment: TLR8 inhibition reporter assay (HEK-Blue cells, SEAP reporter); conditions: HEK-Blue cells overexpressing human TLR8; stimulated with R848 15.9 μM; SEAP read after 22 hour; dose range 0.05 nM-50 μM
T3 construct: host or cells: HEK-Blue cells
T3 sequence (Q9NR97 27-1041): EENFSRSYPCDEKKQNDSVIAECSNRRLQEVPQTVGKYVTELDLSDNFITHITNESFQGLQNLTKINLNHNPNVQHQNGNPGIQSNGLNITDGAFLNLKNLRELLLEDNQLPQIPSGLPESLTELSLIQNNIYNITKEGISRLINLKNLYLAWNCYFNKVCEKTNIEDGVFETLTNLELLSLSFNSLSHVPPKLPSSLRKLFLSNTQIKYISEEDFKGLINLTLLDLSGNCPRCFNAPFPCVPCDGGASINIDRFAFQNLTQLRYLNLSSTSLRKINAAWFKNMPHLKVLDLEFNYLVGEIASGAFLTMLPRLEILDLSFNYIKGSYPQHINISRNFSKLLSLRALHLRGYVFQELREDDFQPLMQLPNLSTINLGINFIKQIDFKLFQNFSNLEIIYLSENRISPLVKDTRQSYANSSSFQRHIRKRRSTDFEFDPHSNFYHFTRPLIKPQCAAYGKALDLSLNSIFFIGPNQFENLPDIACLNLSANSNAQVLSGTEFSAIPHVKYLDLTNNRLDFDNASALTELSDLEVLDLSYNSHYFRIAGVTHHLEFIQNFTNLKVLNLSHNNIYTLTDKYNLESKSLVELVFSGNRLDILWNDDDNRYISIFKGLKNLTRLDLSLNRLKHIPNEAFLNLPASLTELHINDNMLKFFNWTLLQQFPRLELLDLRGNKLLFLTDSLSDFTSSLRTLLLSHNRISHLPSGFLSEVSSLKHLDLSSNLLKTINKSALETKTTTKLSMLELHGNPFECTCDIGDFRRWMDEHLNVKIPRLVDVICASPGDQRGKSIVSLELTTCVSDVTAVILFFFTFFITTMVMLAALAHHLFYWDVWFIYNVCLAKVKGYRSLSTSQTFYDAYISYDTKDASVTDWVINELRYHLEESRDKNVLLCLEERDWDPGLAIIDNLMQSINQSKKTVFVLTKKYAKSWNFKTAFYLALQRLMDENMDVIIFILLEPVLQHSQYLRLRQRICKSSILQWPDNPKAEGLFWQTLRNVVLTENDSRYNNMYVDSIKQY
Method in brief: as §1

| IC50 (human TLR9) [µM] | IC50 (human TLR7) [µM] | IC50 (human TLR8) [µM] | Structure (SMILES) |
| --- | --- | --- | --- |
| 0.553 | 5.02 | ≥ 50 | COc1ccc(-c2cc3cc(-c4ccc(N5CCN(C(C)C)CC5)cc4)ccc3[nH]c2=O)cc1OC [Example 43, 3-(3,4-dimethoxyphenyl)-6-{4-[4-(propan-2-yl)piperazin-1-yl]phenyl}-1,2-dihydroquinolin-2-one] |
| 0.701 | 5.61 | ≥ 50 | CC(C)N1CCN(c2ccc(-c3ccc4[nH]c(=O)c(-c5ccccc5Cl)cc4c3)cc2)CC1 [Example 44, 3-(2-chlorophenyl)-6-{4-[4-(propan-2-yl)piperazin-1-yl]phenyl}-1,2-dihydroquinolin-2-one] |
| 0.734 | ≥ 50 | ≥ 50 | CC(C)N1CCN(c2ccc(-c3ccc4[nH]c(=O)c(-c5cccc(C(F)(F)F)c5)cc4c3)cc2)CC1 [Example 45, 6-{4-[4-(propan-2-yl)piperazin-1-yl]phenyl}-3-[3-(trifluoromethyl)phenyl]-1,2-dihydroquinolin-2-one] |
| 0.781 | ≥ 50 | ≥ 50 | CC(C)N1CCN(c2ccc(-c3ccc4[nH]c(=O)c(-c5cccc(OC(F)(F)F)c5)cc4c3)cc2)CC1 [Example 46, 6-{4-[4-(propan-2-yl)piperazin-1-yl]phenyl}-3-[3-(trifluoromethoxy)phenyl]-1,2-dihydroquinolin-2-one] |
| 0.857 | 8.62 | ≥ 50 | CC(C)N1CCN(c2ccc(-c3ccc4[nH]c(=O)c(-c5cccc(F)c5)cc4c3)cc2)CC1 [Example 47, 3-(3-fluorophenyl)-6-{4-[4-(propan-2-yl)piperazin-1-yl]phenyl}-1,2-dihydroquinolin-2-one] |
| 1.16 | 2.15 | 6.88 | CC(C)N1CCN(c2ccc(-c3ccc4[nH]c(=O)c(-c5cn(C)c6ccccc56)cc4c3)cc2)CC1 [Example 48, 3-(1-methyl-1H-indol-3-yl)-6-(4-[4-(propan-2-yl)piperazin-1-yl]phenyl}-1,2-dihydroquinolin-2-one] |
| 0.239 | 5.42 | ≥ 50 | CNC(=O)Nc1ccc(-c2cc3cc(-c4ccc(N5CCN(C(C)C)CC5)cc4)ccc3[nH]c2=O)cc1 [Example 49, 3-methyl-1-[4-(2-oxo-6-{4-[4-(propan-2-yl)piperazin-1-yl]phenyl}-1,2-dihydroquinolin-3-yl)phenyl]urea] |
| 0.242 | 15.6 | ≥ 50 | CC(C)N1CCN(c2ccc(-c3ccc4c(c3)cc(-c3ccc(NC(=O)c5ccccn5)cc3)c(=O)n4C)cc2)CC1 [Example 50, N-[4-(1-methyl-2-oxo-6-{4-[4-(propan-2-yl)piperazin-1-yl]phenyl}-1,2-dihydroquinolin-3-yl)phenyl]pyridine-2-carboxamide] |
| 0.242 | 1.34 | 47 | CC(C)N1CCN(c2ccc(-c3ccc4[nH]c(=O)c(-c5ccc(N(C)C6CN(C)C6)cc5)cc4c3)cc2)CC1 [Example 51, 3-{4-[methyl(1-methylazetidin-3-yl)amino]phenyl}-6-{4-[4-(propan-2-yl)piperazin-1-yl]phenyl}-1,2-dihydroquinolin-2-one] |
| 0.243 | 15.1 | ≥ 50 | CCC(=O)Nc1ccc(-c2cc3cc(-c4ccc(N5CCN(C(C)C)CC5)cc4)ccc3[nH]c2=O)cc1 [Example 52, N-[4-(2-oxo-6-{4-[4-(propan-2-yl)piperazin-1-yl]phenyl}-1,2-dihydroquinolin-3-yl)phenyl]propanamide] |
| 0.257 | 4.52 | 1.24 | CC(C)N1CCN(c2ccc(-c3ccc4[nH]c(=O)c(-c5ccc(C(N)=O)cc5)cc4c3)cc2)CC1 [Example 53, 4-(2-oxo-6-{4-[4-(propan-2-yl)piperazin-1-yl]phenyl}-1,2-dihydroquinolin-3-yl)benzamide] |
| 0.379 | 13 | ≥ 50 | CNC(=O)c1ccc(-c2cc3cc(-c4ccc(N5CCN(C(C)C)CC5)cc4)ccc3[nH]c2=O)cc1 [Example 54, N-methyl-4-(2-oxo-6-{4-[4-(propan-2-yl)piperazin-1-yl]phenyl}-1,2-dihydroquinolin-3-yl)benzamide] |
| 0.382 | ≥ 50 | ≥ 50 | CC(C)N1CCN(c2ccc(-c3ccc4[nH]c(=O)c(-c5ccc(C(=O)N6CCOCC6)cc5)cc4c3)cc2)CC1 [Example 55, 3-[4-(morpholine-4-carbonyl)phenyl]-6-{4-[4-(propan-2-yl)piperazin-1-yl]phenyl}-1,2-dihydroquinolin-2-one] |
| 0.4 | 5.98 | ≥ 50 | CC(C)N1CCN(c2ccc(-c3ccc4[nH]c(=O)c(-c5ccc(N6CCCC6=O)cc5)cc4c3)cc2)CC1 [Example 56, 3-[4-(2-oxopyrrolidin-1-yl)phenyl]-6-{4-[4-(propan-2-yl)piperazin-1-yl]phenyl}-1,2-dihydroquinolin-2-one] |
